In patent publication US11034699B2, “Ethynyl derivatives” (Hoffmann-La Roche Inc., priority 2015, dated 2021):

Tests used:
mice [1] = conditions: mice treated with MPTP; cited from earlier work
human mGlu4 receptor = human mGlu4 receptor (Homo sapiens (Human), UniProt Q14833); test: Ca2+ mobilization in vitro assay on recombinant human mGlu4 expressed in HEK293 cells (PAM); format: cell-based; conditions: for Emax: HEK293, maximal response in % of maximal stimulatory effect of saturating L-AP4, read-out: Eff. (%); for EC50: HEK293 cells, human mGlu4, L-AP4 at EC20
Procedure: Determination of EC50 Values Using a Ca2+ Mobilization In Vitro Assay on Recombinant Human mGlu4 Expressed in HEK293 Cells:
A monoclonal HEK-293 cell line stably transfected with a cDNA encoding for the human mGlu4 receptor was generated; for the work with mGlu4 Positive Allosteric Modulators (PAMs), a cell line with low receptor expression levels and low constitutive receptor activity was selected to allow the differentiation of agonistic versus PAM activity. Cells were cultured according to standard protocols (Freshney, 2000) in Dulbecco's Modified Eagle Medium with high glucose supplemented with 1 mM glutamine, 10% (vol/vol) heat-inactivated bovine calf serum, Penicillin/Streptomycin, 50 μg/ml hygromycin and 15 μg/ml blasticidin (all cell culture reagents and antibiotics from Invitrogen, Basel, Switzerland).
About 24 hrs before an experiment, 5×10^4 cells/well were seeded in poly-D-lysine coated, black/clear-bottomed 96-well plates. The cells were loaded with 2.5 μM Fluo-4AM in loading buffer (1×HBSS, 20 mM HEPES) for 1 hr at 37° C. and washed five times with loading buffer. The cells were transferred into a Functional Drug Screening System 7000 (Hamamatsu, Paris, France), and 11 half logarithmic serial dilutions of test compound at 37° C. were added and the cells were incubated for 10-30 min. with on-line recording of fluorescence. Following this pre-incubation step, the agonist (2S)-2-amino-4-phosphonobutanoic acid (L-AP4) was added to the cells at a concentration corresponding to EC20 with on-line recording of fluorescence; in order to account for day-to-day variations in the responsiveness of cells, the EC20 of L-AP4 was determined immediately ahead of each experiment by recording of a full dose-response curve of L-AP4.
Responses were measured as peak increase in fluorescence minus basal (i.e. fluorescence without addition of L-AP4), normalized to the maximal stimulatory effect obtained with saturating concentrations of L-AP4. Graphs were plotted with the % maximal stimulatory using XLfit, a curve fitting program that iteratively plots the data using Levenburg Marquardt algorithm. The single site competition analysis equation used was y=A+((B−A)/(1+((x/C)D))), where y is the % maximal stimulatory effect, A is the minimum y, B is the maximum y, C is the EC50, x is the log 10 of the concentration of the competing compound and D is the slope of the curve (the Hill Coefficient). From these curves the EC50 (drug concentration at which 50% of the maximal receptor activation was achieved), the Hill coefficient as well as the maximal response in % of the maximal stimulatory effect obtained with saturating concentrations of L-AP4 were calculated (see FIG. 1).
A depression of the signal observed after addition of the EC20 concentration of L-AP4 was indicative of an inhibitory activity of the test compound.

mice [2] = conditions: cited from earlier work
mice [3] = conditions: cited from earlier work; remark: listed apart in the source
rats = conditions: cited from earlier work
rodent = conditions: 6-OHDA rodent model of PD; cited from earlier work

Chain of human mGlu4 receptor (Q14833 33-912): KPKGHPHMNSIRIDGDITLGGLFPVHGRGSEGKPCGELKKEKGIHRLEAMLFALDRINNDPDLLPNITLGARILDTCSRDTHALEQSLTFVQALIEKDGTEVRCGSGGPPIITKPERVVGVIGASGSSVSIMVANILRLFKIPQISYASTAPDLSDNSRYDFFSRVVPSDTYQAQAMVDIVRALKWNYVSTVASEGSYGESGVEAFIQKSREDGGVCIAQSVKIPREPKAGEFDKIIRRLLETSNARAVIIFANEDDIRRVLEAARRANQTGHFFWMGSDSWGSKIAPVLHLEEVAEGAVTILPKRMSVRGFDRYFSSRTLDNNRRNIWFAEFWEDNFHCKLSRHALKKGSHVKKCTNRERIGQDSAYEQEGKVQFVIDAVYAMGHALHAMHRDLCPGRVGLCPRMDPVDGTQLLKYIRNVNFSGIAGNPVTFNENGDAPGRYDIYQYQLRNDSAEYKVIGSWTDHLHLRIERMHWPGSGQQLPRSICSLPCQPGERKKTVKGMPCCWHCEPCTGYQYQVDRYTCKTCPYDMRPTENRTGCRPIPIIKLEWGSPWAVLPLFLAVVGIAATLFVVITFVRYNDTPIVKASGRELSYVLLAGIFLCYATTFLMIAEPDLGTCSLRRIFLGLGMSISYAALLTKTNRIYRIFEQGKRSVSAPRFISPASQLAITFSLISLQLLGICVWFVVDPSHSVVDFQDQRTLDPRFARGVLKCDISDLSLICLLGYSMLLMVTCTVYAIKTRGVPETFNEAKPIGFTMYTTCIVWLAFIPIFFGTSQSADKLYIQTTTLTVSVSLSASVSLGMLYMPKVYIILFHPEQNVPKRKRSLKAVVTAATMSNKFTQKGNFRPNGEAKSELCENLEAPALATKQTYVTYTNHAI

O=C(Nc1ccccc1)C12CC1/C(=N\O)c1ccccc1O2 (single isomer, unassigned; (-)) [(−)-PHCCC]
nigrostriatal degeneration (mice [1]): reduced nigrostriatal degeneration

CN1C(=O)N(c2c(F)cc(C#Cc3ccccc3)cc2F)C(=O)C[C@]12CCCc1ncncc12 [Example 7, (5S)-3′-[2,6-Difluoro-4-(2-phenylethynyl)phenyl]-1′-methyl-spiro[7,8-dihydro-6H-quinazoline-5,6′-hexahydropyrimidine]-2′,4′-dione]
Emax (human mGlu4 receptor): 115%
EC50 (human mGlu4 receptor): 65 nM

CN1C(=O)N(c2c(F)cc(C#Cc3ccccc3)cc2F)C(=O)C[C@]12CCCCc1nn(C)cc12 [Example 17, (4S)-3′-[2,6-Difluoro-4-(2-phenylethynyl)phenyl]-1′,2-dimethyl-spiro[5,6,7,8-tetrahydrocyclohepta[c]pyrazole-4,6′-hexahydropyrimidine]-2′,4′-dione]
Emax (human mGlu4 receptor): 131%
EC50 (human mGlu4 receptor): 39 nM

CCN1C(=O)N(c2c(F)cc(C#Cc3ccccc3)cc2F)C(=O)C[C@]12CCCc1ccncc12 [Example 11, (8S)-3′-[2,6-Difluoro-4-(2-phenylethynyl)phenyl]-1′-ethyl-spiro[6,7-dihydro-5H-isoquinoline-8,6′-hexahydropyrimidine]-2′,4′-dione]
Emax (human mGlu4 receptor): 130%
EC50 (human mGlu4 receptor): 114 nM

Cc1ccnc(Nc2nc(-c3cn[nH]c3)c(C)s2)n1 [ADX88178]
activity in marble burying test (mice [2]): active
activity in EPM (mice [3]): active
profile in the rat EPM test (rats; rat, after oral dosing): anxiolytic-like profile
activity in EPM (rats; rats): active

CN1C(=O)N(c2c(F)cc(C#Cc3ccccc3)cc2F)C(=O)C[C@]12CCOc1ncccc12 [Example 9, (4S)-3′-[2,6-Difluoro-4-(2-phenylethynyl)phenyl]-1′-methyl-spiro[2,3-dihydropyrano[2,3-b]pyridine-4,6′-hexahydropyrimidine]-2′,4′-dione]
Emax (human mGlu4 receptor): 124%
EC50 (human mGlu4 receptor): 51 nM

CN1C(=O)N(c2c(F)cc(C#Cc3ccccc3)cc2F)C(=O)C[C@]12CCc1ncccc12 [Example 4, (5S)-3′-[2,6-Difluoro-4-(2-phenylethynyl)phenyl]-1′-methyl-spiro[6,7-dihydrocyclopenta[b]pyridine-5,6′-hexahydropyrimidine]-2′,4′-dione]
Emax (human mGlu4 receptor): 115%
EC50 (human mGlu4 receptor): 94 nM

CN1C(=O)N(c2c(F)cc(C#Cc3cccnc3)cc2F)C(=O)C[C@]12CCOc1ccccc12 [Example 8, (4S)-3′-[2,6-Difluoro-4-[2-(3-pyridyl)ethynyl]phenyl]-1′-methyl-spiro[chromane-4,6′-hexahydropyrimidine]-2′,4′-dione]
Emax (human mGlu4 receptor): 145%
EC50 (human mGlu4 receptor): 88 nM

CN1C(=O)N(c2c(F)cc(C#Cc3ccccc3)cc2F)C(=O)C[C@]12CCCCc1c2cnn1C [Example 16, (4S)-3′-[2,6-Difluoro-4-(2-phenylethynyl)phenyl]-1,1′-dimethyl-spiro[5,6,7,8-tetrahydrocyclohepta[c]pyrazole-4,6′-hexahydropyrimidine]-2′,4′-dione]
Emax (human mGlu4 receptor): 137%
EC50 (human mGlu4 receptor): 34 nM

CN1C(=O)N(c2c(F)cc(C#Cc3ccccc3)cc2F)C(=O)C[C@]12CCCc1ccncc12 [Example 1, (8S)-3′-[2,6-Difluoro-4-(2-phenylethynyl)phenyl]-1′-methyl-spiro[6,7-dihydro-5H-isoquinoline-8,6′-hexahydropyrimidine]-2′,4′-dione]
Emax (human mGlu4 receptor): 101%
EC50 (human mGlu4 receptor): 58 nM

CN1C(=O)N(c2c(F)cc(C#Cc3ccccc3)cc2F)C(=O)C[C@]12CCCCc1[nH]ncc12 [Example 15, (4S)-3′-[2,6-Difluoro-4-(2-phenylethynyl)phenyl]-1′-methyl-spiro[5,6,7,8-tetrahydro-1H-cyclohepta[c]pyrazole-4,6′-hexahydropyrimidine]-2′,4′-dione]
Emax (human mGlu4 receptor): 133%
EC50 (human mGlu4 receptor): 54 nM

CN1C(=O)N(c2c(F)cc(C#Cc3cccnc3)cc2F)C(=O)C[C@]12CCCc1ccccc12 [Example 2, (6S)-3-[2,6-Difluoro-4-[2-(3-pyridyl)ethynyl]phenyl]-1-methyl-spiro[hexahydropyrimidine-6,1′-tetralin]-2,4-dione]
Emax (human mGlu4 receptor): 101%
EC50 (human mGlu4 receptor): 52 nM

CN1C(=O)N(c2c(F)cc(C#Cc3ccccc3)cc2F)C(=O)C[C@]12CCCc1nn(C)cc12 [Example 13, (4S)-3′-[2,6-Difluoro-4-(2-phenylethynyl)phenyl]-1′,2-dimethyl-spiro[6,7-dihydro-5H-indazole-4,6′-hexahydropyrimidine]-2′,4′-dione]
Emax (human mGlu4 receptor): 165%
EC50 (human mGlu4 receptor): 39 nM

CN1C(=O)N(c2c(F)cc(C#Cc3ccccc3)cc2F)C(=O)C[C@]12CCCc1c2cnn1C [Example 14, (4S)-3′-[2,6-Difluoro-4-(2-phenylethynyl)phenyl]-1,1′-dimethyl-spiro[6,7-dihydro-5H-indazole-4,6′-hexahydropyrimidine]-2′,4′-dione]
Emax (human mGlu4 receptor): 151%
EC50 (human mGlu4 receptor): 75 nM

CN1C(=O)N(c2c(F)cc(C#Cc3ccccc3)cc2F)C(=O)C[C@]12CCCc1ncccc12 [Example 5, (5S)-3′-[2,6-Difluoro-4-(2-phenylethynyl)phenyl]-1′-methyl-spiro[7,8-dihydro-6H-quinoline-5,6′-hexahydropyrimidine]-2′,4′-dione]
Emax (human mGlu4 receptor): 121%
EC50 (human mGlu4 receptor): 76 nM

N[C@@H](CCP(=O)(O)O)C(=O)O [L-AP4, (2S)-2-amino-4-phosphonobutanoic acid]
neuroprotective effects (rodent): neuroprotective effects

CN1C(=O)N(c2c(F)cc(C#Cc3ccccc3)cc2F)C(=O)C[C@]12CCCc1[nH]ncc12 [Example 12, (4S)-3′-[2,6-Difluoro-4-(2-phenylethynyl)phenyl]-1′-methyl-spiro[1,5,6,7-tetrahydroindazole-4,6′-hexahydropyrimidine]-2′,4′-dione]
Emax (human mGlu4 receptor): 152%
EC50 (human mGlu4 receptor): 51 nM

CN1C(=O)N(c2c(F)cc(C#Cc3cccnc3)cc2F)C(=O)C[C@]12COCc1ccccc12 [Example 10, (6S)-3-[2,6-Difluoro-4-[2-(3-pyridyl)ethynyl]phenyl]-1-methyl-spiro[hexahydropyrimidine-6,4′-isochromane]-2,4-dione]
Emax (human mGlu4 receptor): 118%
EC50 (human mGlu4 receptor): 43 nM

CN1C(=O)N(c2c(F)cc(C#Cc3ccccc3)cc2F)C(=O)C[C@]12CCCc1cnccc12 [Example 6, (5S)-3′-[2,6-Difluoro-4-(2-phenylethynyl)phenyl]-1′-methyl-spiro[7,8-dihydro-6H-isoquinoline-5,6′-hexahydropyrimidine]-2′,4′-dione]
Emax (human mGlu4 receptor): 115%
EC50 (human mGlu4 receptor): 65 nM

CN1C(=O)N(c2c(F)cc(C#Cc3cccnc3)cc2F)C(=O)C[C@]12CCc1ccccc12 [Example 3, (6S)-3-[2,6-Difluoro-4-[2-(3-pyridyl)ethynyl]phenyl]-1-methyl-spiro[hexahydropyrimidine-6,1′-indane]-2,4-dione]
Emax (human mGlu4 receptor): 94%
EC50 (human mGlu4 receptor): 61 nM
